Measurements as given in patent US8193170B2, “2-methylene-19,26-dinor-(20R,22E,25R)-vitamin D analogs” (Wisconsin Alumni Research Foundation, priority 2008, dated 2012).
Entries after “also recorded” stand apart in the source; their conditions may differ.

What was measured:
[1] = Bone calcium mobilization (serum calcium) in vitamin D-deficient rats; assay type: in vivo, rat; settings: rats on 0.02% Ca diet, FIG. 4
Method: (§1) Male, weanling Sprague-Dawley rats were placed on Diet 11 (0.47% Ca) diet+AEK oil for one week followed by Diet 11 (0.02% Ca)+AEK oil for 3 weeks. The rats were then switched to a diet containing 0.47% Ca for one week followed by two weeks on a diet containing 0.02% Ca. Dose administration began during the last week on 0.02% calcium diet. Four consecutive ip doses were given approximately 24 hours apart. Twenty-four hours after the last dose, blood was collected from the severed neck and the concentration of serum calcium determined as a measure of bone calcium mobilization. The first 10 cm of the intestine was also collected for intestinal calcium transport analysis using the everted gut sac method.

HL-60 cells = assay: HL-60 cell differentiation (nitro blue tetrazolium reduction); assay type: cell-based, human; settings: for EC50: differentiation of HL-60 cells into monocytes, FIG. 2
Method: The study drugs were dissolved in ethanol and the concentrations determined using UV spectrophotometry. Serial dilutions were prepared so that a range of drug concentrations could be tested without changing the final concentration of ethanol (≦0.2%) present in the cell cultures.
Human promyelocytic leukemia (HL60) cells were grown in RPMI-1640 medium containing 10% fetal bovine serum. The cells were incubated at 37° C. in the presence of 5% CO2.
HL60 cells were plated at 1.2×10^5 cells/ml. Eighteen hours after plating, cells in duplicate were treated with drug. Four days later, the cells were harvested and a nitro blue tetrazolium reduction assay was performed (Collins et al., 1979; J. Exp. Med. 149:969-974). The percentage of differentiated cells was determined by counting a total of 200 cells and recording the number that contained intracellular black-blue formazan deposits. Verification of differentiation to monocytic cells was determined by measuring phagocytic activity (data not shown).

[2] = system: 24-hydroxylase (24Ohase) gene promoter in ROS 17/2.8 (bone) cells; assay: In vitro transcription assay (24-hydroxylase gene promoter luciferase reporter); assay type: cell-based; settings: for EC50: ROS 17/2.8 cells, 24-hydroxylase promoter-luciferase, FIG. 3, read-out: EC50, transcriptional activity in bone cells
Method: Transcription activity was measured in ROS 17/2.8 (bone) cells that were stably transfected with a 24-hydroxylase (24Ohase) gene promoter upstream of a luciferase reporter gene (Arbour et al., 1998). Cells were given a range of doses. Sixteen hours after dosing the cells were harvested and luciferase activities were measured using a luminometer.
RLU=relative luciferase units.

[3] = Intestinal calcium transport, everted gut sac method, in vitamin D-deficient rats; assay type: in vivo, rat; settings: FIG. 5
Method: as §1

[4] = target: T1, full-length recombinant rat vitamin D receptor (Rattus norvegicus, UniProt P13053); assay: Vitamin D receptor competitive binding with [3H]-1,25(OH)2D3
T1 construct: Full-length recombinant rat receptor was expressed in E. coli; histidine tag (C); made in house; host or cells: E. coli BL21 (DE3) Codon Plus RIL
T1 sequence (P13053 1-423): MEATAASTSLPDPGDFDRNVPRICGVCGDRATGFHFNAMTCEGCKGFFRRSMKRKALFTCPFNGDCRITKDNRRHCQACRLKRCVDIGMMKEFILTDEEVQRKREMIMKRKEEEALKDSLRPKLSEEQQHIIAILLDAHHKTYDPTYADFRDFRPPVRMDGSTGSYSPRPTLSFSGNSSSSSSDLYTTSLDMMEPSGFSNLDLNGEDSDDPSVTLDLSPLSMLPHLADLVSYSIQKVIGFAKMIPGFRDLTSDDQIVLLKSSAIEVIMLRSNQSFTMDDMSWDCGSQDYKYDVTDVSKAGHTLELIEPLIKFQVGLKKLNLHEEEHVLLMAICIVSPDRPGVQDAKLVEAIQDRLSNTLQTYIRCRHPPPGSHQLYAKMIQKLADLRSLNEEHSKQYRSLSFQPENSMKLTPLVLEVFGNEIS
Method: Full-length recombinant rat receptor was expressed in E. coli BL21 (DE3) Codon Plus RIL cells and purified to homogeneity using two different column chromatography systems. The first system was a nickel affinity resin that utilizes the C-terminal histidine tag on this protein. The protein that was eluted from this resin was further purified using ion exchange chromatography (S-Sepharose Fast Flow). Aliquots of the purified protein were quick frozen in liquid nitrogen and stored at −80° C. until use. For use in binding assays, the protein was diluted in TEDK50 (50 mM Tris, 1.5 mM EDTA, pH7.4, 5 mM DTT, 150 mM KCl) with 0.1% Chaps detergent. The receptor protein and ligand concentration were optimized such that no more than 20% of the added radiolabeled ligand was bound to the receptor.
Radiolabeled and unlabeled ligands were added to 100 mcl of the diluted protein at a final ethanol concentration of ≦10%, mixed and incubated overnight on ice to reach binding equilibrium. The following day, 100 mcl of hydroxylapatite slurry (50%) was added to each tube and mixed at 10-minute intervals for 30 minutes. The hydroxylapaptite was collected by centrifugation and then washed three times with Tris-EDTA buffer (50 mM Tris, 1.5 mM EDTA, pH 7.4) containing 0.5% Titron X-100. […] Total binding was determined from the tubes containing only radiolabeled ligand.

[5] = 780 pmol/day ip for 4 consecutive days

EC50 (HL-60 cells; Homo sapiens) [nM]	Ki ([4]; full-length recombinant rat VDR, FIG. 1, read-out: Ki, competition with [3H]-1,25(OH)2D3 for binding to the vitamin D receptor) [nM]	VDR binding potency relative to 1,25(OH)2D3 (times less potent) ([4]; less potent than 1,25(OH)2D3)	Compound	Bone calcium mobilization (serum calcium) [1, 5]	Serum calcium levels ([1]; all dosages tested)	EC50 (HL-60 cells) [nM]	EC50 [2] [nM]	Intestinal calcium transport activity [3, 5]	Intestinal calcium transport, dose dependence ([3]; range of doses)	Bone calcium mobilization (serum calcium) ([1]; 2,340 pmol/day ip for 4 consecutive days)	HL-60 cell differentiation activity relative to 1,25(OH)2D3 (times more) (HL-60 cells; more active than 1,25(OH)2D3)	Transcription activity of the 24-hydroxylase gene relative to 1,25(OH)2D3 (times more) ([2]; more potent than 1,25(OH)2D3, bone cells)
–	–	–	C=C1/C(=C\C=C2/CCC[C@]3(C)[C@@H]([C@H](C)CCCC(C)(C)O)CC[C@@H]23)C[C@@H](O)C[C@@H]1O [1,25(OH)2D3, 1α,25-dihydroxyvitamin D3, reference compound]	significant activity	increased serum calcium levels at all dosages	2	0.2	–	–	–	–	–
0.2	0.1	about 10 times	C=C1[C@H](O)CC(=C/C=C2\CCC[C@]3(C)[C@@H]([C@H](C)/C=C/C[C@@H](C)O)CC[C@@H]23)C[C@H]1O [RR-22, 2-methylene-19,26-dinor-(20R,22E,25R)-1α,25-dihydroxyvitamin D3]	–	–	–	0.02	almost the same activity as 1,25(OH)2D3	promotes intestinal calcium transport in a dose dependent manner	did not result in any mobilization of bone calcium; also recorded: no bone calcium mobilization activity	about 10 times	about 10 times
